# Source: patent US20060276416A1, “Methods and compositions for treating flushing and drug induced weight gain” (Sirtris Pharmaceuticals, Inc., priority 2005, published 2006)
# Experiments:
# [1] = biological target: T1, SIRT1 deacetylase (BIOMOL) (Homo sapiens, UniProt Q96EB6); assay: High-throughput SIRT1 screening protocol (Fluor de Lys-SIRT1, 384 well); type: biochemical; conditions: positive controls; roughly 50 μM, 200 μM NAD+, 5 μM Fluor de Lys-SIRT1
# T1 construct: purchased BIOMOL
# T1 sequence (Q96EB6 1-747): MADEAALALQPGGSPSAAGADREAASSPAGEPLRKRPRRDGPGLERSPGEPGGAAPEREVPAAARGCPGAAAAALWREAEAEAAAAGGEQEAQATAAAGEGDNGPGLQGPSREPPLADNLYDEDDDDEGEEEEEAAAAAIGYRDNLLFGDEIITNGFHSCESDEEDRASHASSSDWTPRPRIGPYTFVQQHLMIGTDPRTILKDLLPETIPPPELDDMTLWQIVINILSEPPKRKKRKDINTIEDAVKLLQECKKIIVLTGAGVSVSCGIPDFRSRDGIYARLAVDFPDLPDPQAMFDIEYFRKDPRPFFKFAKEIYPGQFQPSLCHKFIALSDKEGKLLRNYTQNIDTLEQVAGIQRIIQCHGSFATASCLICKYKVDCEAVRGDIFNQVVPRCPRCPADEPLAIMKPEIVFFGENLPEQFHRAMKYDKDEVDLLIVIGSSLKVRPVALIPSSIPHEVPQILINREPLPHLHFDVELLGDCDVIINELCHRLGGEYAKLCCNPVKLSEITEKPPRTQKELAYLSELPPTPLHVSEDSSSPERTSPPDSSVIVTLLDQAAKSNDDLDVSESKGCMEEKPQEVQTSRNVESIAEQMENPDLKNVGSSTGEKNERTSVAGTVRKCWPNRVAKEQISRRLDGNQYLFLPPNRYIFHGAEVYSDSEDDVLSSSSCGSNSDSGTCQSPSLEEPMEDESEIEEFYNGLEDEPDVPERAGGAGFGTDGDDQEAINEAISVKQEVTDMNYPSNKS
# Procedure: The reaction mixture contains (final): 0.5 units/reaction SIRT1 deacetylase (BIOMOL); 200 μM NAD^+; 5 μM Fluor de Lys-SIRT1 substrate (BIOMOL); buffer (25 mM Tris/Cl, pH 8.0, 137 mM NaCl, 2.7 mM KCl, 1 mM MgCl2, and 1 mg/ml BSA). In addition, a reaction mixture containing no enzyme was made so that each well receiving compound has a corresponding “no enzyme control” well. Reactions were performed in black 384 well plates (NUNC) in a final volume of 25 μl/well.
# The reactions were started by combining enzyme and substrate in a reaction mixture immediately prior to aliquoting in plates (or substrate only for “no enzyme control” plates). Mixture were aliquoted to plates using Biotek μFill (Biotek Instruments). Control mixtures were manually added to designated wells. A library compound was added at a desired concentration by pin transfer to both “with enzyme” and “no enzyme” plates. Compounds were added in at least triplicate (with enzyme reaction in duplicate and no enzyme controls) at a final concentration of roughly 50 μM. The plates were incubated at 37° C. for 30-60 minutes. Then 25 μl of 1× Developer II (BIOMOL) plus 2 mM nicotinamide were added to all wells to stop the reactions. The reactions were left for at least 30 minutes at 37° C. for the signal to develop. The plates were read in a microplate-reading fluorometer capable of excitation at a wavelength in the range of 350-380 nm and detection of emitted light in the range of 440-460 nm. A read time of 0.1 sec per well was used.
# C. elegans = C. elegans fat accumulation, Nile Red staining; type: in vivo
# Procedure: Fat accumulation was visualized with Nile Red staining, as described further below and in Ashrafi K, et al. Nature 421:268-27 (2003).
# Synchronized starved L1 worms were grown in the presence of Nile Red. Strains were grown on NGM plates at 25° C. for approximately 48 hours until the young adult stage was reached. 20-30 young adult worms were then washed 2× with M9 buffer and transferred to new NGM/Nile red experimental plates that contained either OP50 or HTT5 E. coli carrying the L4440 RNAi control vector.
# Young adults were transferred to plates containing the appropriate vector, Nile Red stain and drug then maintained at 25° C.
# Nile Red: Nile Red Powder (Sigma #N-3013) was dissolved in acetone at 500 μg/ml, diluted in 1× Phosphate Buffered Saline (PBS) including appropriate drug and applied to surface of Nematode Growth Media (NGM) plates previously seeded with OP50 or RNAi bacteria, at a final concentration of 0.05 μg/ml. Fat content was monitored and recorded by fluorescence microscopy.
# S. cerevisiae = assay: Yeast replicative lifespan by micro-manipulation; type: cell-based
# Procedure: Average lifespan for wild type, 22.9 generations, quercetin, 23.4; piceatannol.
# Lifespan measurements were performed using PSY316AT MATα as previously described^35. All compounds for lifespan analyses were dissolved in 95% ethanol and plates were dried and used within 24 hours. Prior to lifespan analysis, cells were pre-incubated on their respective media for at least 15 hours. Following transfer to a new plate, cells were equilibrated on the medium for a minimum of 4 hours prior to micro-manipulating them. At least 30 cells were examined per experiment and each experiment was performed at least twice. Statistical significance of lifespan differences was determined using the Wilcoxon rank sum test. Differences are stated to be significant when the confidence is higher than 95%.
# [2] = test system: AMPK at Thr172 and ACC at serine 79; assay: AMPK and ACC phosphorylation Western in CHO-HIR cells; type: cell-based
# Procedure: Cells were harvested after 30 minutes and lysates were immediately boiled in SDS and subjected to Western analysis with site-specific antibodies. Phosphorylation of AMPK at Thr172 indicates activation of the kinase. Active AMPK phosphorylates and inactivates ACC at serine 79.
# [3] = test system: AMPK and ACC phosphorylation; assay: AMPK and ACC phosphorylation in mouse embryonic fibroblasts without LKB1; type: cell-based; conditions: LKB1 -/- cells; 50, 100, 200 μM
# Procedure: Blots were stained for the presence of P-ACC, P-AMPK, AMPK, or tubulin as indicated on the left.
# Similar results were also observed in mouse embryonic fibroblast (MEFs). […] Cells in the left panel were incubated overnight without serum before harvesting; the cells on the right were not incubated under serum free conditions. […] Tubulin served as a loading control.
structure (smiles),measurement,setting,value
"Oc1ccc(/C=C/c2cc(O)cc(O)c2)cc1 [Resveratrol, 3,5,4′-Trihydroxy-trans-stilbene]",Activation of SIRT1,[1],2.2 fold
same,Fat staining,"C. elegans; 100 μM, 48 hours, control 2.5% v/v DMSO",Significant reduction
same,Fat mobilization,C. elegans; DAF-16 mutant worms (mgDf47),stimulates fat mobilization
same,Fat mobilization,C. elegans; RNA inactivation of TOC1.8 (AMPK) or F41E7.3 (COT),blocks resveratrol-stimulated fat mobilization
same,Fat mobilization,C. elegans; Sir2.1 RNAi,did not show resveratrol induced fat mobilization
same,Reduction of fat content,"C. elegans; normal worms, RNAi vector alone",75%
same,Fat accumulation (in words),"C. elegans; wild-type N2, 10 μM or 50 μM",marked decrease
same,Reduction of fat accumulation,"C. elegans; wild-type N2, 100 μM, overnight",90%
same,Average lifespan,S. cerevisiae; glucose-restricted+resveratrol (CR+R),39.9 generations
same,Average lifespan,"S. cerevisiae; growth on resveratrol 10 μM, wild type untreated 21.0",35.7 generations
same,Average lifespan,"S. cerevisiae; growth on resveratrol 100 μM, wild type untreated 21.0",29.4 generations
same,Average lifespan,"S. cerevisiae; growth on resveratrol 500 μM, wild type untreated 21.0",29.3 generations
same,Average lifespan,"S. cerevisiae; pnc1Δ+resveratrol, pnc1Δ 19.2",33.1 generations
same,Average lifespan,"S. cerevisiae; sir2Δ+resveratrol, sir2Δ 9.9",10.0 generations
same,Average lifespan,"S. cerevisiae; wild type+resveratrol, wild type untreated 19.0",37.8 generations
same,Activation of AMPK,"[2]; 100 nM to 50 μM resveratrol, increasing concentrations",activation of AMPK
same,Phosphorylation of AMPK and ACC,"[2]; AICAR 500 μM, resveratrol 12.5, 25 or 50 μM, 30 minutes",stimulates phosphorylation of AMPK and ACC
same,AMPK and ACC phosphorylation,[3],upregulation of both AMPK and ACC phosphorylation
